Earlier results on five molecules are cited in patent US20210319872A1, “DRUG AND DEVICE COMBINATION PRODUCTS WITH IMPROVED SAFETY AND EFFICACY PROFILES” (priority 2016, published 2021).

Like-named read-outs stand apart in the source and are kept apart here.

As for `NCC1(CC(=O)O)CCCCC1` [Gabapentin (Neurontin)], under “in vivo”, the Ataxia result is “Neurologic: Ataxia (Adult, 3%; adult and adolescent, 13%),”; the “Disorder of form of thought” value is recorded as “Psychiatric: Disorder of form of thought (Pediatric, 1.7%),”; the Disturbance in thinking entry is listed as “Disturbance in thinking (2% to 3%), Hostile behavior (Pediatric,”; the Fatigue entry is listed as “Other: Fatigue (3% to 11%), Fever (Pediatric, 10%)”. Besides, where the note is “in vivo”, the Fever result is reported as “Other: Fatigue (3% to 11%), Fever (Pediatric, 10%)”; the Hostile behavior was 5.2%), Hyperactive behavior (Pediatric, 4.7%), Mood swings; the Hyperactive behavior is 5.2%), Hyperactive behavior (Pediatric, 4.7%), Mood swings; the Mood swings entry is reported as “(Pediatric, 6%), Suicidal thoughts”. Besides, where the note is “in vivo”, the Nausea entry is listed as “Gastrointestinal: Nausea (greater than 1%), Vomiting (3.3%)”; the Nystagmus entry was “Nystagmus (Adult and adolescent, 8%)”; the Peripheral edema entry is “Cardiovascular: Peripheral edema (1.7% to 8.3%)”; the “Serious side effect, Dermatologic” value is “Dermatologic: Stevens-Johnson syndrome”. Where the note is “in vivo”, the “Serious side effect, Immunologic” value is “Immunologic: Drug hypersensitivity syndrome”; the “Serious side effect, Psychiatric” value is listed as “(Pediatric, 6%), Suicidal thoughts”; the Viral disease result is “Immunologic: Viral disease (10.9%)”; the Vomiting entry is “Gastrointestinal: Nausea (greater than 1%), Vomiting (3.3%)”.
Consider `NCCCC[C@H](N[C@@H](CCc1ccccc1)C(=O)O)C(=O)N1CCC[C@H]1C(=O)O` [Lisinopril (Prinivil, Zestril)], for which, for the setting “in vivo”, the Dizziness entry was “Neurologic: Dizziness (12% to 19%), Headache”; the Hyperkalemia result was “Endocrine metabolic: Hyperkalemia (2.2% to 6%)”; the Hypotension entry is recorded as “Cardiovascular: Chest pain, Hypotension (up to 11%), Syncope”; the “Hypotension (Severe)” value is “Cardiovascular: Hypotension (Severe) (9%)”. Further, under “in vivo”, the Renal impairment result is “Renal: Acute renal failure, Renal impairment (2.4%)”; the Stevens-Johnson syndrome result is “Dermatologic: Stevens-Johnson syndrome (1% or more), Toxic”; the Syncope entry is reported as “(5% to 7%)”.
For the molecule `CNCCC=C1c2ccccc2CCc2ccccc21` [Nortriptyline (Pamelor)], the “Common side effects, listed without incidence” value (in vivo) is listed as “Gastrointestinal: Constipation”.
Consider `CC1(C)O[C@@H]2[C@@H](CO[C@@]3(COS(N)(=O)=O)OC(C)(C)O[C@@H]23)O1` [Trokendi XR], for which the Hyperammonemia result (Adolescents) is “Endocrine metabolic: Hyperammonemia (Adolescents, 26%),”. Besides, for the setting “listed without frequency”, the “Serious side effect, Hepatic” value was “Hepatic: Liver failure”; the “Serious side effect, Neurologic” value is on record as “Neurologic: Drug-induced encephalopathy”; the “Serious side effect, Psychiatric” value is “Psychiatric: Suicidal thoughts”. The Flushing result (pediatrics) was “Dermatologic: Flushing (pediatrics, 5%)”.
In the case of `CCOC(=O)[C@H](CCc1ccccc1)N[C@@H](C)C(=O)N1[C@H](C(=O)O)C[C@H]2CCCC[C@@H]21` [Trandolapril (Mavik)], under “in vivo”, the Cardiogenic shock result is “Cardiovascular: Cardiogenic shock (3.8%), Intermittent”; the Cough entry is on record as “Respiratory: Cough (1.9% to 35%)”; the Dizziness result is “Neurologic: Dizziness (1.3% to 23%)”; the Hyperkalemia result is “Endocrine metabolic: Hyperkalemia (0.3% to 5.3%)”. Besides, for the setting “in vivo”, the Hypotension result was “Cardiovascular: Hypotension (0.6% to 11%), Syncope (5.9%)”; the Indigestion result was “Gastrointestinal: Indigestion (0.3% to 6.4%)”; the Intermittent claudication entry is “claudication (3.8%)”; the “Serum blood urea nitrogen raised” value is given as “Renal: Serum blood urea nitrogen raised (9%)”. In addition, the Syncope entry (in vivo) is “Cardiovascular: Hypotension (0.6% to 11%), Syncope (5.9%)”.
